How the values were obtained:
Type in all cases: functional, cell-based
[1] = biological target: Mu-type opioid receptor (Homo sapiens) (UniProt P35372); assay: Antagonist activity at human mu opioid receptor expressed in CHO cells assessed as inhibition of DAMGO stimulated [35S]GTPgammaS binding
[2] = biological target: Kappa-type opioid receptor (Homo sapiens) (UniProt P41145); assay: Antagonist activity at human kappa opioid receptor expressed in CHO cells assessed as inhibition of U69,593 stimulated [35S]GTPgammaS binding
[3] = biological target: Delta-type opioid receptor (Homo sapiens) (UniProt P41143); assay: Antagonist activity at human delta opioid receptor expressed in CHO cells assessed as inhibition of DPDPE stimulated [35S]GTPgammaS binding
Sequence of Delta-type opioid receptor (Homo sapiens) (P41143 whole entry): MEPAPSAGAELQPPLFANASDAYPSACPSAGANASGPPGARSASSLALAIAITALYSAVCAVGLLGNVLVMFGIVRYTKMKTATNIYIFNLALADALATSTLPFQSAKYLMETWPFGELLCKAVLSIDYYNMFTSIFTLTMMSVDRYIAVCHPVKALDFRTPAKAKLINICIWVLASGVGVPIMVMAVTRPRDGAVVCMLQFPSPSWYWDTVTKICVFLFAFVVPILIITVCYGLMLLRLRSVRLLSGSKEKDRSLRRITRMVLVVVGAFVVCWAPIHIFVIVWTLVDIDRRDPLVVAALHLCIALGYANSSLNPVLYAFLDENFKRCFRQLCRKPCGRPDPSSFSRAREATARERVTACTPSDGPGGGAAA

Sequence of Kappa-type opioid receptor (Homo sapiens) (P41145 whole entry): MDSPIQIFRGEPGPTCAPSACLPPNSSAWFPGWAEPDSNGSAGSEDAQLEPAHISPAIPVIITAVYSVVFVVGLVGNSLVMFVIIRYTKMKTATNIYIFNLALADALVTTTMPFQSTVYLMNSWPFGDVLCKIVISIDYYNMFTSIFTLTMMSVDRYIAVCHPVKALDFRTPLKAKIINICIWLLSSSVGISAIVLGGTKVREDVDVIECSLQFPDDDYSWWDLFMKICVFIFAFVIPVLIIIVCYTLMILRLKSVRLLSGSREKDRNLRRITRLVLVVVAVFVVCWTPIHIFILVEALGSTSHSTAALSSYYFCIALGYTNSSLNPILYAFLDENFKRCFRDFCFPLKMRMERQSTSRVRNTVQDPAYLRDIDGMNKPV
Sequence of Mu-type opioid receptor (Homo sapiens) (P35372 whole entry): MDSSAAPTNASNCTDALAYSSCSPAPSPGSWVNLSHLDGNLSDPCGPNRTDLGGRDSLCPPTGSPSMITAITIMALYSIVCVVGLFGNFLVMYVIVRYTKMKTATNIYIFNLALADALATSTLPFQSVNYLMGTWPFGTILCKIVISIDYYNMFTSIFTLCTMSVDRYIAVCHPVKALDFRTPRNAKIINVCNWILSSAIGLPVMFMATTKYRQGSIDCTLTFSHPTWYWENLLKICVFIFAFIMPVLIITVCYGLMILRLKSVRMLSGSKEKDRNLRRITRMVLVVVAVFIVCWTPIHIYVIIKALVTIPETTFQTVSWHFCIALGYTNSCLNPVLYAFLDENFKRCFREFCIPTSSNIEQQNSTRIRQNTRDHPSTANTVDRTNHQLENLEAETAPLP

In the case of `C[C@H]1CN(CCCc2ccccc2)CCN1c1cccc(O)c1`, the Ke [1] is reported as 0.88 nM, the Ke [2] is reported as 4.09 nM and the Ke [3] is reported as 13.4 nM.

`C[C@H]1CN(c2cccc(O)c2)[C@@H](C)CN1CCCc1ccccc1` gave a Ke [1] of 17.9 nM, a Ke [2] of 19.5 nM and a Ke [3] of 23.4 nM.

`C[C@@H]1CN(CCCc2ccccc2)[C@@H](C)CN1c1cccc(O)c1` was tested, and the Ke [1] was 18 nM, the Ke [2] was 22.9 nM and the Ke [3] was 180 nM.

Compound `C[C@H]1CN(C)CC[C@@]1(C)c1cccc(O)c1` (relative stereo) has a Ke [1] of 29.3 nM.

With `Oc1cccc(N2CCN(CCCc3ccccc3)CC2)c1` the Ke [1] was 8.47 nM, the Ke [2] was 36.8 nM and the Ke [3] was 34.3 nM.

`C[C@@H]1CN(c2cccc(O)c2)[C@@H](C)CN1CCCc1ccccc1` gave a Ke [1] of 6.14 nM, a Ke [2] of 4.25 nM and a Ke [3] of 55.3 nM.

For `C[C@@H]1CN(CCCc2ccccc2)CCN1c1cccc(O)c1`, the Ke [1] was 1.01 nM, the Ke [2] was 1.57 nM and the Ke [3] was 6.99 nM.

In the case of `C[C@H]1CN(CCCc2ccccc2)CC[C@@]1(C)c1cccc(O)c1`, the Ke [1] is reported as 0.1 nM, the Ke [2] is reported as 0.88 nM and the Ke [3] is reported as 0.9 nM.

In the case of `C[C@H]1CN(C)CCN1c1cccc(O)c1`, the Ke [1] is reported as 508 nM, the Ke [2] is reported as 194 nM and the Ke [3] is reported as greater than 10000 nM.

Compound `C[C@H]1CN(CCCc2ccccc2)C[C@H](C)N1c1cccc(O)c1` has a Ke [1] of 1650 nM, a Ke [2] of 123 nM and a Ke [3] of 9000 nM.
